SMILES strings stand for the structures.

In the assay the target is sigma receptors. Put plainly: sigma receptor binding, [3H]di(2-tolyl)guanidine (DTG) assay. Set-up: species or system guinea pig (male Hartley), brain tissue. Particulars: [3H]DTG approx. 4 nM, 25° C., 90 min, guinea pig brain membranes; for Ki: pH 7.4. Here is the method:
Brain tissue was prepared from male Hartley guinea pigs (Hazelton Labs, Denver, PA) which were anesthetized with CO2 and sacrificed by decapitation. All animal care and use procedures were in accord with the "Guide for the Care and Use of Laboratory Animals" (NIH Publ. No. 86-23, 20 1985). Homogenization was performed in 10 volumes (wt/vol) of 0.32 M sucrose with a Brinkmann Polytron at setting 5, 30 sec. The homogenate was centrifuged at 900×g for 10 min at 4° C., and the supernatant was collected and centrifuged at 22,000×g for 20 min at 4° C. The pellet was resuspended in 10 volumes of Tris-HCl buffer (50 mM, pH 7.4), incubated at 37° C. for 30 min and centrifuged at 22,000×g for 20 min at 4° C. Following this, the pellet was resuspended in Tris buffer and frozen in 5-10 mL aliquots corresponding to a tissue concentration of 100 mg/mL at -70° C. Binding characteristics of the membranes were stable for at least one month when stored at -70° C.
On the day of the assay, membrane aliquots were thawed, resuspended in fresh Tris buffer and stored on ice until use. Each assay tube contained 100 μL of [3H](+)pentazocine at a final concentration of approximately 0.5 nM, [3H]di(2-tolyl)guanidine (DTG) at a final concentration of approximately 4 nM, 100 μL of various concentrations of the compounds of interest, 500 μL of the tissue suspension and 300 μL of buffer to a final assay volume of 1 mL and a final tissue concentration of approximately 8 mg/tube, corresponding to approximately 0.15 mg protein/tube. Nonspecific binding was defined by addition of a final concentration of 1 μM haloperidol to blank tubes for [^3 H]+pentazocine assay or by addition of a final concentration of 10 μM haloperidol to blank tubes for [^3 H]DTG assay. All tubes were incubated at 37° C. for 150 minutes ([^3 H]+pentazocine) or at 25° C. for 90 min ([3H]DTG) before termination of the reaction by filtration over Whatman GF/B glass fiber filters that were presoaked in a solution of 0.5% polyethyleneimine for at least 1 hr prior to use. Filters were washed with three 4 mL volumes of cold Tris-HCl buffer.
Following addition of scintillation cocktail, samples were allowed to equilibrate for at least 4 hr. The amount of bound radioactivity was determined by liquid scintillation spectrometry using a Beckman LS 5000 TA liquid scintillation counter with an efficiency for tritium of approximately 60%.
Data obtained on the compounds in the di(2-tolyl)guanidine (DTG) and d-pentazocine (+pent) assays, expressed as a Ki value in nM or % inhibition at 10 nM, are as follows: […]

As usually defined, the Ki is the equilibrium dissociation constant of an inhibitor or competing ligand from its target. Low values mean a stronger hold on the target, high ones a looser hold on the target. With `CCC(=O)O[C@]1(c2ccccc2)CC[C@H](N(C)C)CC1` [Example 3, cis-4-(dimethylamino)-1-phenylcyclohexyl propionate], the affinity, expressed as Ki, was 0.288 µM.

On to `CCC(=O)O[C@]1(c2ccccc2)CC[C@@H](N(C)C)CC1` [Example 4, trans-4(dimethylamino)-1-phenylcyclohexyl propionate], for which affinity was put at a Ki of 4.08 µM.

Take `CN(C)C1CCC(O)(c2ccccc2)CC1` (stereo not shown) [Example 1, 4-(Dimethylamino)-1-phenylcyclohexanol]: the “DTG % inhib (10 nM)” value (at 10 nM) worked out at 61%.

Molecule `CC(=O)O[C@]1(c2ccccc2)CC[C@H](N(C)C)CC1` [Example 2, cis-4-(dimethylamino)-1-phenylcyclohexylacetate] yielded an inhibitory constant (Ki) of 5 µM. That is a single-digit micromolar value.

The record behind these values is patent US5239110A, “Phenylcyclohexanol derivatives as agents for treating CNS disorders” (Sterling Winthrop, Inc., priority 1992, dated 1993).
